{
  "source": "patent US20130090471A1",
  "about": "“METHOD FOR DETECTING COMPOUNDS THAT MODULATE THE CHOLESTEROL METABOLISM” (priority 2010, published 2013)",
  "type_in_all_cases": "cell-based, Saccharomyces cerevisae",
  "key": {"[1]": {"tested_on": "yIM126-pIM580-CYP27A1 yeast", "test": "Test for restoration of growth on a YPG agar containing syringomycin E inoculated with a cholesterol-producing strain", "settings": "syringomycin E 250 ng/ml, 48 h to 72 h at 30° C.", "protocol": "The yIM126 yeasts containing the expression plasmids for DHCR24 with or without P450 are cultured in YNB medium, 2% glucose, adenine at 100 μg/ml for 48 h at 30° C. and then in Käppeli medium for 24 h at 30° C. as described above.\n(§1) The yeast suspensions are diluted to an optical density at 600 nm of 0.005 unit ( 1/200) in YNB medium in order to inoculate a YPG agar containing syringomycin E at a dose that is toxic for the strain, i.e. 160 ng/ml for yIM126 containing the pIM582 plasmid, or 250 ng/ml for the yIM126 strain containing the pIM580 plasmid.\nThe inoculation of the agar medium is carried out by flooding its surface and immediately suctioning off the excess liquid. Products of interest are deposited on the agar surface thus inoculated, and then dried. […] Similarly, this method makes it possible to identify activators of enzymes, such as cytochromes P450, for instance CYP27A1, which catabolize cholesterol.\nFIG. 7: Test for restoration of growth on a YPG agar containing syringomycin E inoculated with a cholesterol-producing strain.\nThe surface of a YPG agar medium containing syringomycin E at 250 ng/ml is inoculated with a covering of yIM126-pIM580-CYP27A1 yeast suspension. […]"}, "[2]": {"tested_on": "yIM126 containing the pIM582 plasmid (without P450)", "test": "Growth of yeasts on YPG agar containing syringomycin E", "protocol": "(§2) This culture medium is a rich medium of YPG agar type (YPG complete medium: yeast extract (Difco) 10 g/L, bactopeptone (Difco) 20 g/L, glucose (Merck) 20 g/L) supplemented with syringomycin E toxin from Pseudomonas syringae B-301D (Sigma #S6946) from 150 to 250 ng/ml.\n(§3) The yIM126 yeast strains containing an expression vector for DHCR24 and cytochrome P450 such as pIM580, described previously, are cultured for 48 h with shaking at 30° C. in a YNB medium (yeast nitrogen base w/o amino acids (Difco) 6.7 g/L, glucose (Merck) 20 g/L) supplemented with 2% glucose and adenine at 100 μg/ml.\n(§4) The culture reaches an optical density at 600 nm of about 7 units. The cell pellet is harvested by centrifugation and transferred into an identical volume of Käppeli medium containing […], 2% glucose and 100 μg/ml of adenine, and shaken at 30° C. for 24 h, reaching an optical density at 600 nm of about 40 units.\n(§5) The cultures are diluted to 1 unit of optical density at 600 nm and then to 1/50 and then 25-fold dilutions in order to perform a drop test on YPG agars containing syringomycin E according to the methods known to those skilled in the art.\n(§6) The toxicity of this YPG medium containing syringomycin E depends on the amount of cholesterol available in the yeast, observed by GC/FID or GC/MS.\nas §1\n(§7) FIG. 6: Test for growth of various strains producing and/or catabolizing cholesterol on a YPG agar containing syringomycin E (SRG): Yeast culture dilutions deposited on a YPG agar without syringomycin E(6A) or with syringomycin E at 170 ng/ml (6B); Dilution OD at 600 nm from top to bottom: 0.02/0.0008/[…]."}, "[3]": {"tested_on": "yIM126 strain containing the pIM580 plasmid (with CYP27A1)", "test": "Growth of yeasts on YPG agar containing syringomycin E", "protocol": "as §2, §3, §4, §5, §6, §1, §7"}, "[4]": {"settings": "2 μl of product at 0.1 mg/ml deposited"}, "[5]": {"settings": "2 μl of product at 1 mM deposited"}, "[6]": {"settings": "YPG agar, inoculated at OD 600 nm 0.005"}, "[7]": {"settings": "syringomycin E at 170 ng/ml, 48 h to 72 h at 30° C."}},
  "note": "Positions of bridges follow the written chain, without caps; N, C: chain ends. Non-standard residues stand in square brackets, D forms with d. Residues, ends and D or L forms follow the SMILES beside them. *: point of attachment. Asp(3S-OH) = N[C@H](C(=O)O)[C@H](O)C(=O)O; Thr(4-Cl) = N[C@H](C(=O)O)[C@H](O)CCl; X1 = CCCCCCCCC[C@@H](O)CC(=O)*; dDab = NCC[C@@H](N)C(=O)O; Dab = NCC[C@H](N)C(=O)O; Dhb = C/C=C(\\N)C(=O)O",
  "data": [
    {"compound": "C[C@@H](CO)CCC[C@@H](C)[C@H]1CC[C@H]2[C@@H]3CC=C4C[C@@H](O)CC[C@]4(C)[C@H]3CC[C@]12C", "note": "[27OH-cholesterol]", "values": [
      {"measurement": "area of protection with respect to the toxicity of the syringomycin E contained in the agar", "setting": "[1]; [4]", "result": "induces an area of protection"}
    ]},
    {"compound": "Clc1ccccc1CNCC1CCC(CNCc2ccccc2Cl)CC1", "note": "(stereo not drawn) [AY9944]", "values": [
      {"measurement": "restoration of growth (yeast growth halos around the deposits) on medium which is initially toxic", "setting": "[1]; [5]", "result": "verified"}
    ]},
    {"compound": "CCN(C/C=C\\c1ccc(C2CCCCC2)c(Cl)c1)C1CCCCC1", "note": "[SR31747]", "values": [
      {"measurement": "restoration of growth (yeast growth halos around the deposits) on medium which is initially toxic", "setting": "[1]; [5]", "result": "verified"}
    ]},
    {"compound": "CCC(C)(C)c1ccc(CC(C)CN2C[C@@H](C)O[C@@H](C)C2)cc1", "note": "(stereo partly drawn) [amorolfine]", "values": [
      {"measurement": "restoration of growth (yeast growth halos around the deposits) on medium which is initially toxic", "setting": "[1]; [4]", "result": "verified"}
    ]},
    {"compound": "CC(C)CCC[C@@H](C)[C@H]1CC[C@H]2[C@@H]3CC=C4C[C@@H](O)CC[C@]4(C)[C@H]3CC[C@]12C", "note": "[cholesterol]", "values": [
      {"measurement": "area of protection with respect to the toxicity of the syringomycin E contained in the agar", "setting": "[1]; [4]", "result": "induces an area of protection"}
    ]},
    {"compound": "C/C=C1\\NC(=O)[C@H](Cc2ccccc2)NC(=O)[C@H](CCCN=C(N)N)NC(=O)[C@@H](CCN)NC(=O)[C@H](CCN)NC(=O)[C@@H](CO)NC(=O)[C@@H](NC(=O)C[C@H](O)CCCCCCCCC)COC(=O)[C@H]([C@H](O)CCl)NC(=O)[C@H]([C@H](O)C(=O)O)NC1=O", "note": "[syringomycin E] (X1-S[dS][Dab][dDab]RF[Dhb][Asp(3S-OH)][Thr(4-Cl)]; ester 1-C)", "values": [
      {"measurement": "dose that is toxic for the strain", "setting": "[2]; [6]", "result": 160, "unit": "ng/mL"},
      {"measurement": "growth of the yeasts in drop test", "setting": "[2]; [7]", "result": "not capable of growing"},
      {"measurement": "dose that is toxic for the strain", "setting": "[3]; [6]", "result": 250, "unit": "ng/mL"},
      {"measurement": "growth of the yeasts in drop test", "setting": "[3]; [7]", "result": "capable of growing"}
    ]}
  ]
}
